# Source: patent US7452523B2 (priority 2004, dated 2008)
# Like-named read-outs stand apart in the source and are kept apart here.
# Legend:
# [1] = tested on: mild to moderate asthma patients; details: for incidence of oropharyngeal numbing, noted at least once: 12 week study
# [2] = tested on: patients suffering from cough
# cough [3] = details: cited from earlier work
# capsaicin-induced cough = details: lignocaine 20 mg, alone or with adrenaline; cited from earlier work
# [4] = tested on: cough responses in guinea pigs; details: cited from earlier work
# [5] = tested on: patient with persistent refractory tussive syncope; details: 1 ml of 1% nebulized every 4 hours for 10 days, with other anti-tussive drugs; cited from earlier work
# [6] = tested on: persistent cough after stellate ganglion block; details: 1 ml of 2% in 2 ml normal saline, nebulized; cited from earlier work
# cough [7] = details: cited from earlier work; remark: listed apart in the source
# chronic refractory cough = details: 3 ml of 1% nebulized twice a day 6-10 weeks, with other drugs; cited from earlier work
# cough [8] = details: nebulized before fibreoptic bronchoscopy; cited from earlier work
structure (smiles),measurement,setting,value
"CCN(CC)CC(=O)Nc1c(C)cccc1C [lidocaine, acetamide 2-(diethylamino)-N-(2,6-dimethylphenyl)]",patients with one or more respiratory AEs,[1]; 10 mg (16/55),29%
same,"incidence of oropharyngeal numbing, noted at least once",[1]; 10 mg (22/55),40%
same,patients with at least one adverse event,"[1]; 10 mg twice daily, 12 weeks (39/55)",71%
same,"incidence of oropharyngeal numbing, noted at least once",[1]; 40 mg (16/51),31.45%
same,patients with one or more respiratory AEs,[1]; 40 mg (18/51),35%
same,patients with at least one adverse event,"[1]; 40 mg twice daily, 12 weeks (33/51)",65%
same,lung deposition of lidocaine,[1]; compared with previous delivery,increased two- to three-fold
same,loss of gag reflex,"[1]; human, in vivo",No loss of gag reflex
same,reports of bronchospasm upon lidocaine delivery,"[1]; human, in vivo",no reports of bronchospasm
same,tracheal aspiration of food or liquid,"[1]; human, in vivo",No case
same,"symptoms of cough patients sensitive to smoke, dust, airway pollution",[2]; 10 mg or 40 mg inhaled twice daily,substantial improvement of their symptoms
same,suppression of severe chronic cough,"[2]; 16 mg lung dose delivered as 40 mg/1 ml saline, less than 2 minutes",very efficacious
same,"cough in cystic fibrosis, bronchiectasis or other suppurative pulmonary disease",[2]; aerosolized,successful in suppressing the cough
same,tolerability and safety of aerosol,[2]; formulation pH between 5.5 and 7.0,well tolerated and safe
same,efficacy in seasonal non-severe cough,[2]; three mg delivered to the lung,efficacious
same,anesthesia of oropharynx,"cough [3]; 10 ml of 4%, about 30 minutes",substantial anesthesia of oropharynx
same,duration of cough suppression,"cough [3]; after the first treatment, 10 ml of 4%",about 9 weeks
same,duration of cough suppression,cough [3]; after the second administration,7.5 weeks
same,coughing,capsaicin-induced cough,significantly reduced coughing
same,total number of coughs induced by capsaicin,[4]; 10 to 30 mg/ml,reduced the total number of coughs
same,onset of the first cough,[4]; aerosol 0.1 to 10 mg/ml,delay onset of the first cough
same,time course of cough responses,[4]; aerosol 0.1 to 10 mg/ml,no significant effect
same,total number of coughs,[4]; aerosol 0.1 to 10 mg/ml,reduce the total number of coughs
same,syncopal episodes,[5],able to resolve syncopal episodes
same,treatment of persistent cough,[6],Treatment was achieved
same,cough,"cough [7]; 10 to 20 mg every 4-6 hours, albuterol pretreatment",abolished cough
same,bronchoconstriction,cough [7]; 10 to 20 mg every 4-6 hours,not bronchoconstriction
same,bronchospasm on administration,cough [7]; in vivo,triggers bronchospasm
same,treatment of refractory cough,chronic refractory cough,effective
same,time to cough suppression,cough [8],10 to 15 min
